Data on one compound can be found in ChEMBL document CHEMBL2157874, “First total synthesis of prasinic acid and its anticancer activity” (Bioorg Med Chem Lett, 2012).

Each structure is given as a SMILES string.

One assay relates to MCF-10A. The assay can be described thus: Cytotoxicity against human MCF10A cells after 48 hrs by modified propidium iodide assay. The format is cell-based.
A further assay deals with Calu-1. Nature of the assay: Cytotoxicity against human Calu1 cells after 48 hrs by modified propidium iodide assay. Particulars: Calu-1, 48 h. The format is functional, cell-based.
The subject of another assay is PANC-1. Nature of the assay: Cytotoxicity against human PANC1 cells after 48 hrs by modified propidium iodide assay. The note with it: PANC-1, 48 h. The format is functional, cell-based.
The subject of another assay is ACHN. The assay can be described thus: Cytotoxicity against human ACHN cells after 48 hrs by modified propidium iodide assay. Format: functional, cell-based.
The subject of the next assay is HCT-116. The assay can be described thus: Cytotoxicity against human HCT116 cells after 48 hrs by modified propidium iodide assay. Particulars: HCT-116, 48 h. The format is functional, cell-based.
A further assay relates to NCI-H460. The assay can be described thus: Cytotoxicity against human H460 cells after 48 hrs by modified propidium iodide assay. The format is functional, cell-based. The note with it: NCI-H460, 48 h.

Regarding `CCCCCCCc1cc(OC(=O)c2c(O)cc(O)cc2CCCCCCC)cc(O)c1C(=O)O` [PRASINIC ACID], the IC50 in the assay on MCF-10A was greater than 30 µM; in the assay on Calu-1, 4.3 µM; in the assay on PANC-1, 8.5 µM; in the assay with ACHN it was 8.2 µM; in the assay with HCT-116 it was 7.8 µM; with NCI-H460, 9.1 µM.
